Test results taken from US6419962B1, “External skin treatment composition” (Shiseido Company, Ltd., priority 1996, dated 2002).

Experiment: Moisture retention effect (coefficient of rate of moisture evaporation from weight change of sample)
Format: physicochemical
Settings: 50 wt % aqueous solution
Method: The moisture retention effect of unicellularized carrot ([…]) was studied in comparison with water, glycerin ([…]), a methanol extract of carrot ([…]), and DPG (dipropylene glycol) ([…]).
That is, 50 μl each of the above samples was placed on a chemical balance placed in a room held to 22° C. and a dry humidity of 45%. The change in weight was measured every three minutes for seven times in total. From the results, the coefficient of the rate of moisture evaporation in the sample (coefficient k of rate of moisture evaporation found as dW/dt=kW where the amount of moisture is W and the elapsed time is t, that is, logW=kt+C (C is a constant)) was calculated. […]
Note that the method of study of this moisture retention effect was the same as the method used in the above Test Example A2. […]
Note that the method of study of the moisture retention effect was the same as the method performed in the above Test Example A2.
The moisture retention effect of unicellularized iris rhizome was studied in comparison with purified water, glycerol, and an ethanol extract of iris rhizome.
That is, with the exception of the purified water, a 50 wt % aqueous solution was prepared and the coefficient of the moisture evaporation rate was found in the same way as the study of the moisture retention effect of unicellularized carrot (Test Example A2). […]

OCC(O)CO [Glycerol]
Coefficient of moisture evaporation rate: −0.0230
